From the supplement of paper PMC11451515

System: NOMO1
Experiment: cell viability relative to DMSO control; higher = less cytotoxic
Conditions: 48 h
Procedure, shortened: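 Viability was expressed as a per-plate percentage of DMSO wells, with cell-free wells as background. Leukemia cells (NOMO1 or SEM at 500 cells/well, P12-Ichikawa at 1000 cells/well) were adapted for at least four passages in each medium and seeded in 1536-well plates (5 μl). Library compounds in DMSO were pin-dosed over an 11-point threefold series from 47 μM to 0.79 nM, and CellTiter-Glo One luminescence was read after 48 h at 37°C.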

[1] = RPMI 5 mM glucose + 10% FBS, 0.000781 µM
[2] = RPMI 5 mM glucose + 10% FBS, 0.00234 µM
[3] = RPMI 5 mM glucose + 10% FBS, 0.00702 µM
[4] = RPMI 5 mM glucose + 10% FBS, 0.0211 µM
[5] = RPMI 5 mM glucose + 10% FBS, 0.0632 µM
[6] = RPMI 5 mM glucose + 10% FBS, 0.19 µM
[7] = RPMI 5 mM glucose + 10% FBS, 0.569 µM
[8] = RPMI 5 mM glucose + 10% FBS, 1.71 µM
[9] = RPMI 5 mM glucose + 10% FBS, 5.12 µM
[10] = RPMI 5 mM glucose + 10% FBS, 15.4 µM
[11] = RPMI 5 mM glucose + 10% FBS, 46.1 µM
[12] = HPLM + 10% dialyzed FBS, 0.000781 µM
[13] = HPLM + 10% dialyzed FBS, 0.00234 µM
[14] = HPLM + 10% dialyzed FBS, 0.00702 µM
[15] = HPLM + 10% dialyzed FBS, 0.0211 µM
[16] = HPLM + 10% dialyzed FBS, 0.0632 µM
[17] = HPLM + 10% dialyzed FBS, 0.19 µM
[18] = HPLM + 10% dialyzed FBS, 0.569 µM
[19] = HPLM + 10% dialyzed FBS, 1.71 µM
[20] = HPLM + 10% dialyzed FBS, 5.12 µM
[21] = HPLM + 10% dialyzed FBS, 15.4 µM
[22] = HPLM + 10% dialyzed FBS, 46.1 µM
[23] = RPMI 5 mM glucose + 10% dialyzed FBS, 0.000781 µM
[24] = RPMI 5 mM glucose + 10% dialyzed FBS, 0.00234 µM
[25] = RPMI 5 mM glucose + 10% dialyzed FBS, 0.00702 µM
[26] = RPMI 5 mM glucose + 10% dialyzed FBS, 0.0211 µM
[27] = RPMI 5 mM glucose + 10% dialyzed FBS, 0.0632 µM
[28] = RPMI 5 mM glucose + 10% dialyzed FBS, 0.19 µM
[29] = RPMI 5 mM glucose + 10% dialyzed FBS, 0.569 µM
[30] = RPMI 5 mM glucose + 10% dialyzed FBS, 1.71 µM
[31] = RPMI 5 mM glucose + 10% dialyzed FBS, 5.12 µM
[32] = RPMI 5 mM glucose + 10% dialyzed FBS, 15.4 µM
[33] = RPMI 5 mM glucose + 10% dialyzed FBS, 46.1 µM

SMILES	cell viability [1]	cell viability [2]	cell viability [3]	cell viability [4]	cell viability [5]	cell viability [6]	cell viability [7]	cell viability [8]	cell viability [9]	cell viability [10]	cell viability [11]	cell viability [12]	cell viability [13]	cell viability [14]	cell viability [15]	cell viability [16]	cell viability [17]	cell viability [18]	cell viability [19]	cell viability [20]	cell viability [21]	cell viability [22]	cell viability [23]	cell viability [24]	cell viability [25]	cell viability [26]	cell viability [27]	cell viability [28]	cell viability [29]	cell viability [30]	cell viability [31]	cell viability [32]	cell viability [33]
O=C(O)CCNC(=O)c1ccc(/N=N/c2ccc(O)c(C(=O)O)c2)cc1	106%	125%	113%	122%	110%	110%	117%	106%	117%	116%	76.7%	–	–	–	–	–	–	–	–	–	–	–	–	–	–	–	–	–	–	–	–	–	–
CC(C)c1cc(C(C)C)c(CC(=O)N[S+](=O)([O-])Oc2c(C(C)C)cccc2C(C)C)c(C(C)C)c1	96.3%	89.8%	88.6%	82.8%	94.8%	87.8%	105%	93%	98.3%	90.5%	86.9%	103%	110%	93.9%	114%	112%	88.6%	92.2%	98.8%	100%	92.5%	88.9%	95.9%	89.4%	91.4%	89.7%	87.4%	91.4%	97%	84.5%	90.8%	87.9%	65.3%
CN1\C=N/C2=CC=C(NC3=CC(=CC=C3C)NC(=O)C4=CC(=CC=C4)C(C)(C)C#N)C=C2C1=O	93.6%	95.1%	111%	99%	89.6%	88.5%	81.2%	75.6%	47.7%	46.3%	28.1%	97.8%	107%	96.4%	105%	92.7%	94.6%	76.8%	76.3%	52.1%	52.7%	19.1%	110%	92.4%	92.9%	101%	91.2%	79.2%	76.6%	65.5%	46.8%	46.3%	28.6%
CN(C)CC(C)(C)CNc1nn2c(-c3ccccc3)nnc2cc1C1CCC1	107%	98.4%	103%	123%	103%	110%	111%	122%	116%	87%	15.6%	113%	110%	117%	126%	113%	109%	116%	110%	91.9%	39.5%	22.4%	91.6%	110%	103%	105%	102%	95.5%	116%	109%	100%	103%	27.7%
C=C[C@H]1CN2CCC1C[C@@H]2C(O)c1ccnc2ccc(OC)cc12 (stereo not given in full)	111%	116%	114%	108%	127%	120%	119%	119%	116%	107%	104%	111%	133%	115%	107%	135%	116%	128%	108%	105%	125%	102%	110%	119%	116%	121%	124%	110%	127%	117%	106%	107%	100%
COC1=C(OCCCN2CCOCC2)C=CC\3=C1/N=C(/NC(=O)C4=CN=C(N)N=C4)N5CC/N=C35	83.3%	90.5%	84.4%	78.9%	83.3%	80.5%	71.9%	59.6%	52%	49.3%	46.1%	101%	111%	111%	89.4%	99.4%	73.2%	55.5%	59.4%	44.6%	42.2%	39.8%	94.7%	105%	88.9%	92.7%	77.8%	63.5%	59.6%	54.1%	49.6%	49.1%	34.6%
NC[C@H]1O[C@H](O[C@@H]2[C@H](O)[C@@H](O[C@H]3O[C@H](CO)[C@@H](O)[C@H](N)[C@H]3O)[C@H](N)C[C@@H]2N)[C@H](O)[C@@H](O)[C@@H]1O	–	–	–	–	–	–	–	–	–	–	–	132%	122%	121%	111%	135%	127%	113%	129%	112%	121%	109%	120%	128%	114%	124%	113%	124%	113%	123%	120%	106%	112%
COc1cc2c(cc1OC)CN(CCc1ccc(NC(=O)c3cc(OC)c(OC)cc3NC(=O)c3cnc4ccccc4c3)cc1)CC2	107%	106%	123%	118%	123%	118%	127%	106%	107%	107%	96.5%	118%	121%	123%	122%	128%	122%	109%	119%	114%	95.3%	94.1%	118%	122%	113%	126%	115%	126%	116%	124%	120%	102%	91.5%
CC(=O)Oc1ccccc1C(=O)Nc1ncc([N+](=O)[O-])s1	84%	92%	93.4%	96.4%	115%	92.3%	102%	103%	104%	97.6%	96.9%	98.9%	100%	98.9%	107%	111%	105%	106%	96.1%	98.4%	71.8%	89.4%	83.7%	95.2%	77.7%	86.3%	94.8%	98.8%	95.7%	98.4%	86.3%	69.2%	75.1%
COc1c(C)c2c(c(O)c1C/C=C(\C)CCC(=O)O)C(=O)OC2	101%	107%	102%	94.4%	109%	94.9%	102%	109%	84.6%	47.5%	22.3%	116%	109%	106%	107%	116%	95.4%	115%	100%	86.7%	45.2%	32.6%	98.4%	96.7%	105%	97.3%	100%	108%	84.7%	89.5%	90.4%	58%	38.3%
COc1cccc2c1C(=O)c1c(O)c3c(c(O)c1C2=O)C[C@@](O)(C(=O)CO)C[C@@H]3O[C@H]1C[C@H](N)[C@H](O)[C@H](C)O1	116%	111%	107%	115%	102%	102%	108%	102%	7.5%	25.6%	6.28%	112%	127%	108%	120%	96.2%	108%	116%	90.2%	8.77%	37.4%	6.99%	112%	116%	105%	104%	107%	110%	100%	104%	8.85%	34.3%	5.09%
C[C@@H]1CCO[C@H]2CN\3/C=C(/C(=O)NCC4=C(F)C=C(F)C=C4)C(=O)\C(=C3C(=O)N12)O	87.6%	91.1%	110%	88.7%	92.6%	88.5%	84.5%	102%	86.3%	95.4%	93.9%	107%	103%	117%	116%	109%	109%	101%	90.6%	105%	102%	108%	90.3%	82%	106%	96.9%	99.6%	85.8%	103%	98.4%	95.5%	87.1%	96.2%
CCCCCCCCCCCCCC(=O)N[C@H](CO)[C@H](O)c1ccc([N+](=O)[O-])cc1	91.2%	82.8%	99.6%	90.2%	98.2%	91.3%	93%	51%	21.5%	3.33%	2.43%	92.5%	98.8%	99.1%	105%	105%	90.8%	108%	49.9%	16.8%	3.54%	2.02%	83.2%	95%	95.7%	90.6%	92.2%	93%	94.1%	59.4%	23.2%	4.12%	2.14%
COc1cc[nH]c2ncc(C(=O)C(=O)N3CCN(C(=O)c4ccccc4)C[C@H]3C)c1-2	99.9%	101%	101%	101%	99%	99.2%	100%	99.1%	107%	105%	102%	137%	121%	111%	105%	121%	108%	106%	108%	120%	100%	99.1%	109%	117%	114%	115%	119%	108%	108%	105%	99.2%	103%	91.9%
C=CC(=O)Nc1cc2c(Nc3ccc(F)c(Cl)c3)ncnc2cc1OCCCN1CCOCC1	123%	119%	126%	124%	128%	108%	104%	110%	103%	88.2%	94.3%	111%	127%	121%	132%	114%	104%	108%	105%	76.5%	59.1%	72.7%	116%	111%	117%	108%	120%	109%	105%	101%	80.5%	73.4%	90.4%
CC12CC3CC(C)(C1)CC(N)(C3)C2	105%	116%	133%	113%	122%	128%	134%	108%	127%	100%	58.5%	119%	111%	120%	98.4%	125%	139%	134%	129%	107%	89.2%	49.7%	111%	105%	114%	111%	116%	132%	135%	120%	113%	102%	78%
